Data reported in publication PMC12903857.
Values joined by “and” are separate entries in the source; they are usually repeats but may differ in a detail not shown here. Equal values may be shown once. One block for each compound: values may come before it.

Assays:
C-RAF/C-RAF = conditions: with N-RAS Q61L; 100% = DMSO mBU
Procedure: We aimed to study potential effects of the molecular glues on RAF-dimer formation using a NanoBRET assay.
All compound treatments were 24 hours.

14-3-3σ/B-RAF = 14-3-3σ/B-RAF (Homo sapiens, UniProt P31947)
14-3-3σ/C-RAF [1] = biological target: T1, 14-3-3σ/C-RAF (Homo sapiens, UniProt P31947); assay: cell-based
Target sequence in this assay (P04049 whole entry partner, one chain of several): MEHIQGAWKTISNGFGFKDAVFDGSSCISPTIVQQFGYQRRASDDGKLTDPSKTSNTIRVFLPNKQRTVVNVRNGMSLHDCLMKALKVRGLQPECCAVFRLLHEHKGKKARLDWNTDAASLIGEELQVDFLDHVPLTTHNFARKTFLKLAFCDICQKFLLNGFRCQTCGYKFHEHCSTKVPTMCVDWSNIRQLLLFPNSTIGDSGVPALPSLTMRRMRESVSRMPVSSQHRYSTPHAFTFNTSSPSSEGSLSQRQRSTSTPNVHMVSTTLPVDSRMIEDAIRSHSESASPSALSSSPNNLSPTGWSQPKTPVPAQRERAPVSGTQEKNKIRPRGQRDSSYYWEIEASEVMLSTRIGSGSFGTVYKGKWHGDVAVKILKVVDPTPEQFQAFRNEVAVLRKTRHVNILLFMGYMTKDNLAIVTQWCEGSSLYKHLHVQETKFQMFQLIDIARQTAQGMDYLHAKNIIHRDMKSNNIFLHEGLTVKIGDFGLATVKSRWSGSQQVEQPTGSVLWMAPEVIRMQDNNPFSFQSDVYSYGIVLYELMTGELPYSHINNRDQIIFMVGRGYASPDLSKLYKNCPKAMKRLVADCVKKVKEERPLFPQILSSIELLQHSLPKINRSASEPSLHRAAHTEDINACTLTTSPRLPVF
Procedure: (§1) Stabilization of the interaction with a molecular glue was expected to lead to an increase in the intensity of the BRET signal.
Both cell lines were grown in
All compound treatments were 24 hours.
Brieﬂy, HEK293T cells were

14-3-3σ/C-RAF259 [2] = biological target: T2, 14-3-3σ/C-RAF259 (Homo sapiens, UniProt P31947); assay: Fluorescence anisotropy (FA) compound titration; assay type: binding; conditions: 10 nM C-RAF259-FAM 10-mer, 5 μΜ 14-3-3σ, overnight; read-out: Compound titrations EC50 value C-RAF259
pERK [3] = assay: Lumit immunoassay for pERK levels in HEK293T cells; assay type: cell-based; conditions: HEK293T, 24 h, EGF stimulation
14-3-3σ/C-RAF [4] = biological target: T1, 14-3-3σ/C-RAF
14-3-3σ/SOS1 = 14-3-3σ/SOS1 (Homo sapiens, UniProt P31947); assay: FA compound titration follow-up from selectivity panel
Procedure: (§2) concentraton (50 μM, maximum eﬀect) was used.
giving the anisotropy change (ΔAU ) .
sele tme: 0 ms, gain: optmal).

B-RAF/C-RAF = assay: NanoBRET for heterodimer formation B-RAF/C-RAF
A-RAF/C-RAF = assay: NanoBRET for heterodimer formation A-RAF/C-RAF
14-3-3σ/TAZ = 14-3-3σ/TAZ (Homo sapiens, UniProt P31947); assay: FA compound titration follow-up from selectivity panel
Procedure: as §2
giving the anisotropy change (ΔAU ) .
sele tme: 0 ms, gain: optmal).

pERK [5] = assay: Lumit immunoassay for pERK with 14-3-3 C38N mutant; assay type: cell-based; conditions: HEK293T
[6] = test system: 80 peptides representing a diverse set of 14-3-3 clients; assay: FA selectivity panel, single point; conditions: 10.5 μM compound, 100 nM client peptides, overnight; hit = change in anisotropy of more than 15 units
Procedure: as §2
giving the anisotropy change (ΔAU ) .
sele tme: 0 ms, gain: optmal).

14-3-3σ/A-RAF = 14-3-3σ/A-RAF (Homo sapiens, UniProt P31947)
N-RAS Q61L/C-RAF = conditions: HEK293T; 100% = DMSO mBU, 0% = N-RAS/C-RAF R89L
14-3-3σ/KC1A = 14-3-3σ/KC1A (Homo sapiens, UniProt P31947); assay: FA compound titration follow-up from selectivity panel
Procedure: as §2
giving the anisotropy change (ΔAU ) .
sele tme: 0 ms, gain: optmal).

14-3-3σ/TSC2 = 14-3-3σ/TSC2 (Homo sapiens, UniProt P31947); assay: as above
Procedure: as §2
giving the anisotropy change (ΔAU ) .
sele tme: 0 ms, gain: optmal).

14-3-3σ/C-RAF259 [7] = biological target: T2, 14-3-3σ/C-RAF259; assay: as above
Procedure: as §2
giving the anisotropy change (ΔAU ) .
sele tme: 0 ms, gain: optmal).

14-3-3σ/C-RAF [8] = biological target: T1, 14-3-3σ/C-RAF; conditions: HEK293T cells, mBU compound / mBU DMSO
Target sequence in this assay (P04049 whole entry partner, one chain of several): as above
Procedure: as §1
Both cell lines were grown in
All compound treatments were 24 hours.
Brieﬂy, HEK293T cells were

14-3-3σ = biological target: T3, 14-3-3σ (Homo sapiens, UniProt P31947); assay: Intact mass spectrometry assay, apo (no peptide); assay type: binding; parameters: full-length for mass spectrometry and fluorescence anisotropy assays; made in house; host or cells: E. coli Rosetta 2(DE3)pLysS, pPROEX HTb vector; conditions: 1 μM compound, 100 nM 14-3-3σ
T3 sequence (P31947 1-248): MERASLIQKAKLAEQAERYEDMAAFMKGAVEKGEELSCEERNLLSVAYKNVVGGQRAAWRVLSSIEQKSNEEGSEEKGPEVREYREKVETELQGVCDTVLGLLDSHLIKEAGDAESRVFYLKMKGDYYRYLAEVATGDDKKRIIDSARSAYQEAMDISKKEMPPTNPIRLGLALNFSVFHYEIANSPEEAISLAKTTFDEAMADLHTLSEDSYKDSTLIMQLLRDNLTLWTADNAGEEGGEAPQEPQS

14-3-3σ/C-RAF259 [9] = biological target: T2, 14-3-3σ/C-RAF259; assay: Intact mass spectrometry assay with C-RAF259 phospho-peptide; assay type: binding; parameters: full-length for mass spectrometry and fluorescence anisotropy assays; made in house; host or cells: E. coli Rosetta 2(DE3)pLysS (14-3-3σ); peptides from Elim Biopharmaceuticals; conditions: 1 μM compound, 100 nM 14-3-3σ, 18 µM peptide
14-3-3σ/B-RAF365 = biological target: T4, 14-3-3σ/B-RAF365 (Homo sapiens, UniProt P31947); assay: Intact mass spectrometry assay with B-RAF365 peptide; assay type: binding; conditions: 1 μM compound, 100 nM 14-3-3σ, 5 µM peptide
T4 construct: full-length for mass spectrometry and fluorescence anisotropy assays; made in house; host or cells: E. coli Rosetta 2(DE3)pLysS (14-3-3σ); peptides from Elim Biopharmaceuticals

14-3-3σ/C-RAF259 [10] = biological target: T2, 14-3-3σ/C-RAF259; assay: FA protein titration, C-RAF259 peptide; conditions: appKd DMSO / appKd compound
Procedure: The following peptdes were used in the FA selectvity panel:
SOS1 pS1161: FITC-Ahx-PRRRPE{pS}APAESS-CONH2, TSC2 pS1254: FAM-Ahx-LY K S L { p S } V PA A S TA K-CONH2, ARHG2 pS886: FAM-Ahx-PVDPRRR{pS}LPAGDAL-CONH2.
Mass spectrometry dose response assays were performed on a Waters Acquity UPLC/ Xevo G2-XS Q-To f m a s s
samples prior to applicaton on the mass spectrometer. For 19-point MS dose responses, 50 mM compound stocks
transferred in the assay plates.
Assay buﬀer was TRIS (10 mM, pH 8.0) and ﬁnal volume per well was 50
μL, with ﬁnal top concentraton of compounds dose response series at 1 mM.
24 μL of sample were needed for the tme-course
(BSA; Sigma-Aldrich). Final DMSO in the assay was less than 1%. Diluton series of 14-3-3 proteins or compounds
dispensed in the assay plates. […] Ea ch compound was measured in triplicates, i n two i ndependent experi ments. Fluorescence anisotropy measurements were performed directly and a€er overnight incubaton at room temperature. The high
(10 nM) and DMSO or compound (100 µM). Fluorescence anisotropy measurements were performed a€er overnight incubaton at room temperature .

14-3-3σ/A-RAF214 = 14-3-3σ/A-RAF214 (Homo sapiens, UniProt P31947); assay: Intact mass spectrometry assay with A-RAF214 peptide; conditions: 1 μM compound, 100 nM 14-3-3σ, 16 µM peptide
Procedure: Ea ch compound was measured in triplicates, i n two i ndependent experi ments. Fluorescence anisotropy measurements were performed directly and a€er overnight incubaton at room temperature.
Fluorescence anisotropy measurements were performed a€er overnight incubaton at room temperature .

[11] = 14-3-3σ covalently bound to compound, Replicate 1 and 2

Structure (SMILES): O=C(CCl)NCC1CCN(S(=O)(=O)c2ccc(I)cc2)CC1 [Compound 23]
decrease in C-RAF homodimer formation (C-RAF/C-RAF): 47%
ka, single replicates, B-RAF 12-mer (14-3-3σ/B-RAF; [11]): 9.53e+06 M⁻¹ s⁻¹ and 8.53e+06 M⁻¹ s⁻¹
kd, single replicates, B-RAF 12-mer (14-3-3σ/B-RAF; [11]): 0.0572 s⁻¹ and 0.0569 s⁻¹
affinity increase, B-RAF (14-3-3σ/B-RAF; vs binary interaction): 400 fold
EC50 (14-3-3σ/C-RAF [1]): 0.18 µM
EC50 (14-3-3σ/C-RAF259 [2]): 1 ± 0.5 µM
IC50 (pERK [3]; Homo sapiens, HEK-293T, 14-3-3σ and C-RAF transfected): 4.4 µM
ka, single replicates, C-RAF 12-mer (14-3-3σ/C-RAF [4]; [11]): 1.12e+07 M⁻¹ s⁻¹ and 1.09e+07 M⁻¹ s⁻¹
kd, single replicates, C-RAF 12-mer (14-3-3σ/C-RAF [4]; [11]): 0.0131 s⁻¹ and 0.0133 s⁻¹
affinity increase, C-RAF (14-3-3σ/C-RAF [4]; vs binary interaction): 2000 fold
EC50 (14-3-3σ/SOS1): 24.2 µM
decrease of the B-RAF/C-RAF dimer (B-RAF/C-RAF): 15%
decrease of the A-RAF/C-RAF interaction (A-RAF/C-RAF): 23%
EC50 (14-3-3σ/TAZ): 11.7 µM
effect on pERK with the C38N mutant (pERK [5]): No effect
clients emerged as hits [6]: four
ka, single replicates, A-RAF 12-mer (14-3-3σ/A-RAF; [11]): 1.25e+07 M⁻¹ s⁻¹ and 1.02e+07 M⁻¹ s⁻¹
kd, single replicates, A-RAF 12-mer (14-3-3σ/A-RAF; [11]): 0.0189 s⁻¹ and 0.0196 s⁻¹
affinity increase, A-RAF (14-3-3σ/A-RAF; vs binary interaction): 1000 fold
reduction of the N-RAS Q61L/C-RAF interaction (N-RAS Q61L/C-RAF): 75%
EC50 (14-3-3σ/KC1A): 38.1 µM
EC50 (14-3-3σ/TSC2): 19.2 µM
EC50 (14-3-3σ/C-RAF259 [7]): 5.1 µM

14-3-3/C-RAF NanoBRET fold stab. (14-3-3σ/C-RAF [8]): No increase
% bound, APO, 1h (14-3-3σ; 1 h): 0%
% bound, APO, 8h (14-3-3σ; 8 h): 0%
% bound, APO, 16h (14-3-3σ; 16 h): 1.9%
% bound, APO, 24h (14-3-3σ; 24 h): 2.9%
EC50 (14-3-3σ/C-RAF259 [2]): > 1000 µM
% bound, C-RAF259 (11mer), 1h (14-3-3σ/C-RAF259 [9]; 1 h): 2.9% and 0%
% bound, C-RAF259 (15mer), 1h (14-3-3σ/C-RAF259 [9]; 1 h): 0%
% bound, C-RAF259 (11mer), 8h (14-3-3σ/C-RAF259 [9]; 8 h): 5.6% and 0%
% bound, C-RAF259 (15mer), 8h (14-3-3σ/C-RAF259 [9]; 8 h): 0%
% bound, C-RAF259 (11mer), 16h (14-3-3σ/C-RAF259 [9]; 16 h): 5.6%
% bound, C-RAF259 (15mer), 16h (14-3-3σ/C-RAF259 [9]; 16 h): 0%
% bound, C-RAF259 (11mer), 24h (14-3-3σ/C-RAF259 [9]; 24 h): 5.6% and 2.9%
% bound, C-RAF259 (15mer), 24h (14-3-3σ/C-RAF259 [9]; 24 h): 0%
% bound, B-RAF365 (10mer), 1h (14-3-3σ/B-RAF365; 1 h): 0%
% bound, B-RAF365 (15mer), 1h (14-3-3σ/B-RAF365; 1 h): 0%
% bound, B-RAF365 (10mer), 8h (14-3-3σ/B-RAF365; 8 h): 0%
% bound, B-RAF365 (15mer), 8h (14-3-3σ/B-RAF365; 8 h): 0%
% bound, B-RAF365 (10mer), 16h (14-3-3σ/B-RAF365; 16 h): 2.5%
% bound, B-RAF365 (15mer), 16h (14-3-3σ/B-RAF365; 16 h): 0.9%
% bound, B-RAF365 (10mer), 24h (14-3-3σ/B-RAF365; 24 h): 2.5%
% bound, B-RAF365 (15mer), 24h (14-3-3σ/B-RAF365; 24 h): 3.8%
Fold stabilization (100 µM compound), C-RAF259 (10mer) (14-3-3σ/C-RAF259 [10]): lacked an effect
Fold stabilization (100 µM compound), C-RAF259 (10mer) (14-3-3σ/C-RAF259 [10]; listed as (8)): 1 fold
% bound, A-RAF214 (15mer), 1h (14-3-3σ/A-RAF214; 1 h): 0%
% bound, A-RAF214 (15mer), 8h (14-3-3σ/A-RAF214; 8 h): 0%
% bound, A-RAF214 (15mer), 16h (14-3-3σ/A-RAF214; 16 h): 0%
% bound, A-RAF214 (15mer), 24h (14-3-3σ/A-RAF214; 24 h): 0%
Structure (SMILES): O=C(CCl)NCC1CCN(S(=O)(=O)Cc2cccc(F)c2)CC1 [Compound 8]
effect on phosphorylation of ERK (pERK [3]; 23 at 10 μM): No effect
reduction of the N-RAS Q61L/C-RAF interaction (N-RAS Q61L/C-RAF): did not affect
